In patent US20020151459A1, “Methods for identifying compounds useful for inhibiting farnesyl diphosphate synthase” (Merck & Co., Inc., priority 2000, published 2002):
“Also recorded” adds a separate entry of the source.

Experiments:
[1] = target: T1, rat liver squalene synthase (Rattus norvegicus, UniProt Q02769); settings: cited from earlier work
T1 construct: host or cells: rat liver
T1 sequence (Q02769 1-416): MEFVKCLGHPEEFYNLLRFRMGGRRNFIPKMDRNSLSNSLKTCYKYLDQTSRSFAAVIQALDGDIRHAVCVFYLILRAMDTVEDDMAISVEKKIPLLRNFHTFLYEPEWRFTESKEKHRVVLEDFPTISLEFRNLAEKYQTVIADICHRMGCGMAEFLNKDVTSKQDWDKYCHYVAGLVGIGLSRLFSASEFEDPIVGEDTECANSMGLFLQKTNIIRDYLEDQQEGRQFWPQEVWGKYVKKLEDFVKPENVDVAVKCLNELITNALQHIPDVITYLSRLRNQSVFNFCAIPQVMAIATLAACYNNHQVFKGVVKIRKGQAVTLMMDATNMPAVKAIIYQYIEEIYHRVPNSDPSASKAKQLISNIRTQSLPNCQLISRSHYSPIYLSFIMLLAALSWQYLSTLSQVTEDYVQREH

[2] = target: T2, human recombinant farnesyl diphosphate synthase (Homo sapiens, UniProt P14324)
T2 sequence (P14324 67-419 limits assumed): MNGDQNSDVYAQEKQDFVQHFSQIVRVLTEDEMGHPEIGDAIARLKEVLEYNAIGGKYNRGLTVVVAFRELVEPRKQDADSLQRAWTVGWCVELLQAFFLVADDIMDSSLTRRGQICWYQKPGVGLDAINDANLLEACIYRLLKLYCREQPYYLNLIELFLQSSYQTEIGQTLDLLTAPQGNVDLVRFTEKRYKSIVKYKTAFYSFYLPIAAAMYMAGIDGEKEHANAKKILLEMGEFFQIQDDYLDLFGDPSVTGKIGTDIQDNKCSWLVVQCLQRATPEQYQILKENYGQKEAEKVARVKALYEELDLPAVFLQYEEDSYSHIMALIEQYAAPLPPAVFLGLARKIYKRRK

[3] = target: Farnesyl protein transferase (FTase) (Homo sapiens, UniProt P49354+P49356)
[4] = target: geranylgeranyl protein transferase I (GGTase I) (Homo sapiens, UniProt P49354+P53609)
[5] = target: geranylgeranyl protein transferase II (GGTase II) (Homo sapiens, UniProt P53611+Q92696)
Sequence of geranylgeranyl protein transferase II (GGTase II) (Q92696 whole entry): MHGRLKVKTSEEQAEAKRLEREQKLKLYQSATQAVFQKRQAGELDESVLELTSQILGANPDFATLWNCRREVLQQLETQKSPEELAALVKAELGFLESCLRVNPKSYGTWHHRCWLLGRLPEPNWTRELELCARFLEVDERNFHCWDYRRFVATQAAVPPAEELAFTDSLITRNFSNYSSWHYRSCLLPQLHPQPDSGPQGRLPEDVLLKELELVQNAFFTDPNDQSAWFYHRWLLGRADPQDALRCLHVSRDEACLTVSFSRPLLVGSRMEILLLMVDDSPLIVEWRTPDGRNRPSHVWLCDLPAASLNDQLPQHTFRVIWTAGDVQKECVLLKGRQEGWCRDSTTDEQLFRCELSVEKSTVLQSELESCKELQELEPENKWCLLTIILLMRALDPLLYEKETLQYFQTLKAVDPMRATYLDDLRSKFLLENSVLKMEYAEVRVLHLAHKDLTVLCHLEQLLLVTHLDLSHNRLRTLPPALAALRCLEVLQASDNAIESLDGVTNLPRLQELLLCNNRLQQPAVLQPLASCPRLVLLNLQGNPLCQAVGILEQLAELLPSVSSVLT
Sequence of geranylgeranyl protein transferase II (GGTase II) (P53611 whole entry): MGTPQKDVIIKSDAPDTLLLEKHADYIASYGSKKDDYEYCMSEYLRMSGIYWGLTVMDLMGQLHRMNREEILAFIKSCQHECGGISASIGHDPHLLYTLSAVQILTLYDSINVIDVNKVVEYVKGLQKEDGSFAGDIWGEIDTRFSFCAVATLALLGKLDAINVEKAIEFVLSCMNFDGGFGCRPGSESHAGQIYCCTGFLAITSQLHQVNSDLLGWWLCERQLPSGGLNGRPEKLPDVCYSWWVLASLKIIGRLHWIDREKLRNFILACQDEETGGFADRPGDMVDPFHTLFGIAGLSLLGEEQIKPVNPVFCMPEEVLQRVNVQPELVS

[6] = system: protein prenylation in osteoclasts; settings: at 60 μM
[7] = system: mevalonate-derived non-saponifiable lipids in osteoclasts; settings: alendronate 0-60 μM
[8] = system: protein prenylation in osteoclasts; experiment: cells; settings: Mus musculus, Osteoclast, read-out: IC50, labeling of prenylated proteins, osteoclasts, 15 μM lovastatin, 2 hours pretreatment, 3 hours of labeling
[9] = system: mevalonate-derived non-saponifiable lipids in osteoclasts; experiment: cells; settings: Mus musculus, Osteoclast, read-out: IC50, incorporation of label from MVL into non-saponifiable lipids, osteoclasts, 2 hours pretreatment, 3 hours of labeling
osteoclasts in culture = settings: cited from earlier work
sterol synthesis = settings: read-out: IC50, block of sterol synthesis; incorporation of 14C-MVA into sterol, rat liver cell-free system; cited from earlier work
[10] = target: T2, human recombinant farnesyl diphosphate synthase; experiment: biochemical

For `O=P(O)(O)C(O)(CCN1CCCC1)P(=O)(O)O` [EB 1053, 1-hydroxy-3-(1-pyrrolidinyl)-propylidene-1,1-bisphosphonic acid], the “inhibition of squalene synthase (in words)” value [1] is listed as “potent, nanomolar inhibitors”.

For `O=P(O)(O)C(NC1CCCCCC1)P(=O)(O)O` [YM 175, Cycloheptylaminomethylene-1,1-bisphosphonic acid], the “inhibition of squalene synthase (in words)” value [1] is listed as “potent, nanomolar inhibitors”.

In the case of `NCCCC(O)(P(=O)(O)O)P(=O)(O)O` [alendronate, 4-amino-1-hydroxybutylidene-1,1-bisphosphonic acid monosodium trihydrate], the “inhibition of FPP synthase (in words)” value [2] is reported as “effectively inhibit”, the “inhibition of FTase (in words)” value [3] is reported as “not inhibited” and the “inhibition of GGTase I (in words)” value [4] is reported as “not inhibited”. For the same compound, the “inhibition of GGTase II (in words)” value [5] was “not inhibited”, the “labeling of prenylated proteins (in words)” value [6] was “essentially disappears” and the “lowering of incorporation of label from MVL into non-saponifiable lipids” value [7] was “up to 80%”. For the same compound, the “inhibition of squalene synthase (in words)” value [1] was “comparatively little effect”, the IC50 [8] was roughly 15 µM and the IC50 [9] was roughly 15 µM. The “osteoclast formation and bone resorption (in words)” value (osteoclasts in culture) was “inhibited” and the IC50 (sterol synthesis) was 0.168 µM.

With `O=P(O)(O)C(Cl)(Cl)P(=O)(O)O` [clodronate, 1,1-dichloromethylene-1,1-diphosphonic acid] the “inhibition of FPP synthase (in words)” value [2] was “no inhibition observed; also recorded: little or no effect”.

For `CC(O)(P(=O)(O)O)P(=O)(O)O` [etidronate, 1-hydroxyethane-1,1-diphosphonic acid], the “inhibition of FPP synthase (in words)” value [2] was “little or no effect” and the IC50 [10] was 80 µM.

In the case of `CC[C@H](C)C(=O)O[C@H]1C[C@@H](C)C=C2C=C[C@H](C)[C@H](CC[C@@H]3C[C@@H](O)CC(=O)O3)[C@H]21` [lovastatin], the “osteoclast formation and bone resorption (in words)” value (osteoclasts in culture) is given as “inhibited”.

For `NCCC(O)(P(=O)(O)O)P(=O)(O)O` [pamidronate, 3-amino-1-hydroxypropylidene-1,1-bisphosphonic acid], the “inhibition of FPP synthase (in words)” value [2] is given as “effectively inhibit”, the “inhibition of squalene synthase (in words)” value [1] is given as “comparatively little effect” and the IC50 (sterol synthesis) is given as 0.42 µM.
